# According to the supplement of paper PMC10307832:
# Legend:
# Test in all cases: relative viability (nuclei count vs DMSO), 5 days (fraction); higher = more cells survive
# [1] = tested on: SW 900
# Outline: (§1)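 Values are medians from duplicate plates. Each reflects relative viability, defined as the nuclei count of treated wells over that of vehicle wells. Lung cancer cell lines in 1536-well plates were pin-tool dosed one day after seeding with one drug alone or with a fixed anchor-drug dose plus five library-drug doses (not always all listed) in √10 steps, then fixed, stained and imaged at 4× after 5 days.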
# [2] = tested on: NCI-H23
# Outline: as §1
# [3] = tested on: NCI-H2347
# Outline: as §1
# [4] = tested on: ChaGo-K-1
# Outline: as §1
# [5] = tested on: NCI-H2085
# Outline: as §1
# [6] = tested on: 201T
# Outline: as §1
# [7] = tested on: NCI-H1651
# Outline: as §1
# [8] = tested on: NCI-H1975
# Outline: as §1
# [9] = tested on: NCI-H1755
# Outline: as §1
# [10] = tested on: NCI-H460
# Outline: as §1
# [11] = tested on: NCI-H1734
# Outline: as §1
# [12] = tested on: NCI-H838
# Outline: as §1
# [13] = tested on: LXF-289
# Outline: as §1
# [14] = tested on: NCI-H1437
# Outline: as §1
# [15] = tested on: NCI-H2342
# Outline: as §1
# [16] = tested on: CAL-12T
# Outline: as §1
# [17] = tested on: H3255
# Outline: as §1
# [18] = tested on: NCI-H441
# Outline: as §1
# [19] = tested on: HOP-62
# Outline: as §1
# [20] = tested on: NCI-H2405
# Outline: as §1
# [21] = tested on: EMC-BAC-2
# Outline: as §1
# [22] = tested on: UMC-11
# Outline: as §1
# [23] = tested on: NCI-H2023
# Outline: as §1
compound,measurement,setting,value
Oc1nc(-c2ccc(C(F)(F)F)cc2)nc2c1CSCC2 [XAV939] + NC(=O)Nc1cc(-c2cccc(F)c2)sc1C(=O)N[C@H]1CCCNC1 [AZD7762] (partner 0.2 µM),relative viability,[1]; first compound 0.253 µM,0.616
same,relative viability,[1]; first compound 0.8 µM,0.599
same,relative viability,[1]; first compound 2.53 µM,0.501
same,relative viability,[2]; first compound 0.08 µM,0.393
same,relative viability,[2]; first compound 0.8 µM,0.195
same,relative viability,[2]; first compound 2.53 µM,0.238
same,relative viability,[3]; first compound 0.08 µM,0.803
same,relative viability,[3]; first compound 0.253 µM,0.612
same,relative viability,[3]; first compound 0.8 µM,0.796
same,relative viability,[3]; first compound 2.53 µM,0.58
same,relative viability,[4]; first compound 0.08 µM,0.904
same,relative viability,[4]; first compound 0.253 µM,0.686
same,relative viability,[4]; first compound 0.8 µM,0.717
same,relative viability,[4]; first compound 2.53 µM,0.754
same,relative viability,[5]; first compound 0.08 µM,1.07
same,relative viability,[5]; first compound 0.253 µM,0.876
same,relative viability,[5]; first compound 0.8 µM,0.896
same,relative viability,[5]; first compound 2.53 µM,0.881
same,relative viability,[6]; first compound 0.08 µM,0.781
same,relative viability,[6]; first compound 0.253 µM,0.497
same,relative viability,[6]; first compound 0.8 µM,0.724
same,relative viability,[6]; first compound 2.53 µM,0.64
same,relative viability,[7]; first compound 0.08 µM,0.518
same,relative viability,[7]; first compound 0.253 µM,0.429
same,relative viability,[7]; first compound 0.8 µM,0.383
same,relative viability,[7]; first compound 2.53 µM,0.389
same,relative viability,[8]; first compound 0.08 µM,0.684
same,relative viability,[8]; first compound 0.253 µM,0.534
same,relative viability,[8]; first compound 0.8 µM,0.504
same,relative viability,[8]; first compound 2.53 µM,0.516
same,relative viability,[9]; first compound 0.08 µM,0.394
same,relative viability,[9]; first compound 0.253 µM,0.501
same,relative viability,[9]; first compound 0.8 µM,0.443
same,relative viability,[9]; first compound 2.53 µM,0.458
same,relative viability,[10]; first compound 0.08 µM,0.765
same,relative viability,[10]; first compound 0.253 µM,0.631
same,relative viability,[10]; first compound 0.8 µM,0.636
same,relative viability,[10]; first compound 2.53 µM,0.551
same,relative viability,[11]; first compound 0.08 µM,0.617
same,relative viability,[11]; first compound 0.253 µM,0.515
same,relative viability,[11]; first compound 0.8 µM,0.59
same,relative viability,[11]; first compound 2.53 µM,0.51
same,relative viability,[12]; first compound 0.08 µM,0.93
same,relative viability,[12]; first compound 0.253 µM,0.842
same,relative viability,[12]; first compound 0.8 µM,0.923
same,relative viability,[12]; first compound 2.53 µM,0.799
same,relative viability,[13]; first compound 0.08 µM,1.16
same,relative viability,[13]; first compound 0.253 µM,1.04
same,relative viability,[13]; first compound 0.8 µM,1.1
same,relative viability,[13]; first compound 2.53 µM,1.21
same,relative viability,[14]; first compound 0.08 µM,1.17
same,relative viability,[14]; first compound 0.253 µM,1.07
same,relative viability,[14]; first compound 0.8 µM,1.1
same,relative viability,[14]; first compound 2.53 µM,1.02
same,relative viability,[15]; first compound 0.08 µM,0.425
same,relative viability,[15]; first compound 0.253 µM,0.443
same,relative viability,[15]; first compound 0.8 µM,0.401
same,relative viability,[15]; first compound 2.53 µM,0.345
same,relative viability,[16]; first compound 0.08 µM,0.654
same,relative viability,[16]; first compound 0.253 µM,0.595
same,relative viability,[16]; first compound 0.8 µM,0.609
same,relative viability,[16]; first compound 2.53 µM,0.507
same,relative viability,[17]; first compound 0.08 µM,0.858
same,relative viability,[17]; first compound 0.253 µM,0.753
same,relative viability,[17]; first compound 0.8 µM,0.773
same,relative viability,[17]; first compound 2.53 µM,0.669
same,relative viability,[18]; first compound 0.08 µM,1.08
same,relative viability,[18]; first compound 0.253 µM,0.947
same,relative viability,[18]; first compound 0.8 µM,1.27
same,relative viability,[18]; first compound 2.53 µM,1.27
same,relative viability,[19]; first compound 0.08 µM,0.827
same,relative viability,[19]; first compound 0.253 µM,0.503
same,relative viability,[19]; first compound 0.8 µM,0.613
same,relative viability,[19]; first compound 2.53 µM,0.323
same,relative viability,[20]; first compound 0.08 µM,0.701
same,relative viability,[20]; first compound 0.253 µM,0.731
same,relative viability,[20]; first compound 0.8 µM,0.672
same,relative viability,[20]; first compound 2.53 µM,0.569
same,relative viability,[21]; first compound 0.08 µM,1.1
same,relative viability,[21]; first compound 0.253 µM,1.04
same,relative viability,[21]; first compound 0.8 µM,0.95
same,relative viability,[21]; first compound 2.53 µM,0.878
Oc1nc(-c2ccc(C(F)(F)F)cc2)nc2c1CSCC2 [XAV939] + CC1(C)CCC(c2ccc(Cl)cc2)=C(CN2CCN(c3ccc(C(=O)NS(=O)(=O)c4ccc(N[C@H](CCN5CCOCC5)CSc5ccccc5)c(S(=O)(=O)C(F)(F)F)c4)cc3)CC2)C1 [Navitoclax] (partner 0.5 µM),relative viability,[2]; first compound 0.08 µM,0.859
same,relative viability,[2]; first compound 0.253 µM,0.776
same,relative viability,[2]; first compound 0.8 µM,0.531
same,relative viability,[2]; first compound 2.53 µM,0.755
same,relative viability,[3]; first compound 0.08 µM,0.788
same,relative viability,[3]; first compound 0.253 µM,0.886
same,relative viability,[3]; first compound 0.8 µM,0.75
same,relative viability,[3]; first compound 2.53 µM,0.698
same,relative viability,[4]; first compound 0.08 µM,0.898
same,relative viability,[4]; first compound 0.253 µM,0.914
same,relative viability,[4]; first compound 0.8 µM,0.998
same,relative viability,[4]; first compound 2.53 µM,1.04
same,relative viability,[5]; first compound 0.08 µM,1.1
same,relative viability,[5]; first compound 0.253 µM,1.1
same,relative viability,[5]; first compound 0.8 µM,1.13
same,relative viability,[5]; first compound 2.53 µM,0.882
same,relative viability,[6]; first compound 0.08 µM,1.21
same,relative viability,[6]; first compound 0.253 µM,1.13
same,relative viability,[6]; first compound 0.8 µM,1.09
same,relative viability,[6]; first compound 2.53 µM,1.16
same,relative viability,[7]; first compound 0.08 µM,1.12
same,relative viability,[7]; first compound 0.253 µM,1.01
same,relative viability,[7]; first compound 0.8 µM,0.995
same,relative viability,[7]; first compound 2.53 µM,0.894
same,relative viability,[8]; first compound 0.08 µM,1.08
same,relative viability,[8]; first compound 0.253 µM,0.784
same,relative viability,[8]; first compound 0.8 µM,1.06
same,relative viability,[8]; first compound 2.53 µM,0.768
same,relative viability,[9]; first compound 0.08 µM,0.945
same,relative viability,[9]; first compound 0.253 µM,0.796
same,relative viability,[9]; first compound 0.8 µM,0.907
same,relative viability,[9]; first compound 2.53 µM,0.853
same,relative viability,[10]; first compound 0.08 µM,1.38
same,relative viability,[10]; first compound 0.253 µM,1.03
same,relative viability,[10]; first compound 0.8 µM,1.1
same,relative viability,[10]; first compound 2.53 µM,1.16
same,relative viability,[11]; first compound 0.08 µM,0.921
same,relative viability,[11]; first compound 0.253 µM,0.866
same,relative viability,[11]; first compound 0.8 µM,0.856
same,relative viability,[11]; first compound 2.53 µM,0.855
same,relative viability,[12]; first compound 0.08 µM,1.21
same,relative viability,[12]; first compound 0.253 µM,0.994
same,relative viability,[12]; first compound 0.8 µM,1.07
same,relative viability,[12]; first compound 2.53 µM,0.868
same,relative viability,[13]; first compound 0.08 µM,0.92
same,relative viability,[13]; first compound 0.253 µM,0.911
same,relative viability,[13]; first compound 0.8 µM,0.949
same,relative viability,[13]; first compound 2.53 µM,0.972
same,relative viability,[22]; first compound 0.08 µM,0.318
same,relative viability,[22]; first compound 0.8 µM,0.3
same,relative viability,[22]; first compound 2.53 µM,0.271
same,relative viability,[14]; first compound 0.08 µM,1.14
same,relative viability,[14]; first compound 0.253 µM,0.931
same,relative viability,[14]; first compound 0.8 µM,1.12
same,relative viability,[14]; first compound 2.53 µM,0.888
same,relative viability,[16]; first compound 0.08 µM,1.39
same,relative viability,[16]; first compound 0.253 µM,1.07
same,relative viability,[16]; first compound 0.8 µM,1.28
same,relative viability,[16]; first compound 2.53 µM,1.03
same,relative viability,[17]; first compound 0.08 µM,0.511
same,relative viability,[17]; first compound 0.253 µM,0.445
same,relative viability,[17]; first compound 0.8 µM,0.403
same,relative viability,[17]; first compound 2.53 µM,0.366
same,relative viability,[18]; first compound 0.08 µM,0.571
same,relative viability,[18]; first compound 0.253 µM,0.683
same,relative viability,[18]; first compound 0.8 µM,0.487
same,relative viability,[18]; first compound 2.53 µM,0.973
same,relative viability,[23]; first compound 0.08 µM,0.968
same,relative viability,[23]; first compound 0.253 µM,0.843
same,relative viability,[23]; first compound 0.8 µM,0.862
same,relative viability,[23]; first compound 2.53 µM,0.827
same,relative viability,[19]; first compound 0.08 µM,1.08
same,relative viability,[19]; first compound 0.253 µM,1.02
same,relative viability,[19]; first compound 0.8 µM,0.995
same,relative viability,[19]; first compound 2.53 µM,0.932
same,relative viability,[20]; first compound 0.08 µM,0.945
same,relative viability,[20]; first compound 0.253 µM,0.762
same,relative viability,[20]; first compound 0.8 µM,0.886
same,relative viability,[20]; first compound 2.53 µM,0.555
same,relative viability,[21]; first compound 0.08 µM,1.28
same,relative viability,[21]; first compound 0.253 µM,1.04
same,relative viability,[21]; first compound 0.8 µM,1.1
same,relative viability,[21]; first compound 2.53 µM,0.793
